Source: ChEMBL document CHEMBL3352178, “Antidepressant- and anxiolytic-like activity of 7-phenylpiperazinylalkyl-1,3-dimethyl-purine-2,6-dione derivatives with diversified 5-HT₁A receptor functional profile” (Bioorg Med Chem, 2015)
Calls of active or inactive are those of the source. The rule behind the calls is not given here.

Assays:
Mus musculus [1] = test: Antidepressant-like activity in mouse assessed as reduction in immobility time at 10 to 20 mg/kg, ip dosed 60 mins before test by forced swim test; type: functional, organism-based
Mus musculus [2] = test: Effect on spontaneous locomotor activity in ip dosed mouse during 2 to 6 mins; type: ADME, organism-based; conditions: in vivo
[3] = target: 5-hydroxytryptamine receptor 7 (Homo sapiens, UniProt P34969); test: Displacement of [3H]]-5-CT from human cloned 5-HT7R expressed in HEK293 cells; type: cell-based
5-hydroxytryptamine receptor 7, sequence (P34969 whole entry): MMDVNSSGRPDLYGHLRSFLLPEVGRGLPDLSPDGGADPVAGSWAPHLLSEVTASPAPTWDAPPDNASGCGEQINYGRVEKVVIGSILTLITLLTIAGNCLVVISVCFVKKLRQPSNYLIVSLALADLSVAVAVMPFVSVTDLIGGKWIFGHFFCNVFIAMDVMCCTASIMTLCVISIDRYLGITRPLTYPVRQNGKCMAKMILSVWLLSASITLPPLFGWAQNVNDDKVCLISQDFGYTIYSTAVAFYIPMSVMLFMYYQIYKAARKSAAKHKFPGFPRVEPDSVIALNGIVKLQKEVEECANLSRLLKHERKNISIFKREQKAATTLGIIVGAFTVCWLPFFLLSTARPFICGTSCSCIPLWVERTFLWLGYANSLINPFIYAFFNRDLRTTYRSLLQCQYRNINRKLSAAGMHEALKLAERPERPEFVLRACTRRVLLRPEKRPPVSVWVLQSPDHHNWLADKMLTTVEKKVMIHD

[4] = target: 5-hydroxytryptamine receptor 2A (Rattus norvegicus, UniProt P14842); test: Displacement of [3H]-ketanserin from 5-HT2AR in rat cortex
5-hydroxytryptamine receptor 2A, sequence (P14842 whole entry): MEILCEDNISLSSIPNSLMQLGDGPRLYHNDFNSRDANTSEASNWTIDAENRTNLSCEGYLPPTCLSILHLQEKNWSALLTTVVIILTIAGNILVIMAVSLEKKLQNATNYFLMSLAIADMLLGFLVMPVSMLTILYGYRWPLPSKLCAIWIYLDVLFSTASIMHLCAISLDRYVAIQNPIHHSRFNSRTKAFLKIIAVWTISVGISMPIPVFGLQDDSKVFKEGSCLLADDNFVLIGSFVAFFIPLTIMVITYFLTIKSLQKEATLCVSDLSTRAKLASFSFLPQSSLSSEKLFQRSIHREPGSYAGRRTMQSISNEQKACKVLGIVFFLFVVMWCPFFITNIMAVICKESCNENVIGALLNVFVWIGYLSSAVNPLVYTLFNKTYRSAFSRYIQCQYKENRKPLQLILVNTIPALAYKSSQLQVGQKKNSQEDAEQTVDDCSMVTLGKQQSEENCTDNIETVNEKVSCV

[5] = target: T1, 5-hydroxytryptamine receptor 1A (Rattus norvegicus, UniProt P19327); test: Displacement of [3H]-8-OH-DPAT from 5-HT1AR in rat hippocampus; type: tissue-based
T1 sequence (P19327 whole entry): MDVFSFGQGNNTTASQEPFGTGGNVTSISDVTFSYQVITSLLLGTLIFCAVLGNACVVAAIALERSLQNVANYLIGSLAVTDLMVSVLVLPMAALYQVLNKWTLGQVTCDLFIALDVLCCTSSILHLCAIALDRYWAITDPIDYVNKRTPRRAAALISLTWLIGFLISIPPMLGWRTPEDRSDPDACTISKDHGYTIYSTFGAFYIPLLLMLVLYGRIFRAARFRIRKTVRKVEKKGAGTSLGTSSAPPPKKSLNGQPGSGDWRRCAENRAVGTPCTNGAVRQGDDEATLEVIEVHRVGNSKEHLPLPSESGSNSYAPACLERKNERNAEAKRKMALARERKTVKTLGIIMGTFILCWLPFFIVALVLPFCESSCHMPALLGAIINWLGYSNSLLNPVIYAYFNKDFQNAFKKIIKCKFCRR

[6] = target: 5-hydroxytryptamine receptor 6 (Homo sapiens, UniProt P50406); test: Displacement of [3H]LSD from human cloned 5-HT6R expressed in HEK293 cells; type: cell-based
5-hydroxytryptamine receptor 6, sequence (P50406 whole entry): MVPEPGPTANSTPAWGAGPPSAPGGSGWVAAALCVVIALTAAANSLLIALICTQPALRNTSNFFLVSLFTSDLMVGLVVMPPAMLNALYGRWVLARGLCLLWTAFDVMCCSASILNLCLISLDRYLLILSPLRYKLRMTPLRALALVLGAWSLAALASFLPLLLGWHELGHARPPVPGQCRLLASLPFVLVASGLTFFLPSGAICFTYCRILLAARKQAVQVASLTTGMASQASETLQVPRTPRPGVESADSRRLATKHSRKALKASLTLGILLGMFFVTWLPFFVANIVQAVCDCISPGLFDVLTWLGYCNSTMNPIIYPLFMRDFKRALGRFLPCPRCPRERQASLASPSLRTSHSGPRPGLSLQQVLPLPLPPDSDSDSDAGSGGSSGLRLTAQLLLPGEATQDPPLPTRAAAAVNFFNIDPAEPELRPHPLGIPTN

D(2) dopamine receptor = D(2) dopamine receptor (Rattus norvegicus, UniProt P61169); test: Displacement of [3H]-spiperone from dopamine D2 receptor in rat striatum
D(2) dopamine receptor, sequence (P61169 whole entry): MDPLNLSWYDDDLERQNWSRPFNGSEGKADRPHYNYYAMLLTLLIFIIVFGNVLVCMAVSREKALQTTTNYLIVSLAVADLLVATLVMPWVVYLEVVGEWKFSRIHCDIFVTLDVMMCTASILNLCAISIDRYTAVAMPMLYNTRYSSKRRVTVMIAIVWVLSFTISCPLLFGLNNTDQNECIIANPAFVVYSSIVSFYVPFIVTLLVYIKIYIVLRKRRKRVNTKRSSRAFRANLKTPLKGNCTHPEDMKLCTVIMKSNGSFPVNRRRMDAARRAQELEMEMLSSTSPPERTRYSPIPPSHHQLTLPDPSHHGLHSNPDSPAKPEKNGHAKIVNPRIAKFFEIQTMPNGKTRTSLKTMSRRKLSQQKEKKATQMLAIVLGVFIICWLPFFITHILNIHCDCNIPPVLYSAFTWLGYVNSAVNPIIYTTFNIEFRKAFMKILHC

| Structure (SMILES) | Activity (Mus musculus [1]) | Activity (Mus musculus [2]) | Ki [3] [nM] | Ki [4] [nM] | Ki [5] [nM] | Ki [6] [nM] | Ki (D(2) dopamine receptor) [nM] |
| --- | --- | --- | --- | --- | --- | --- | --- |
| CN(C)CCCN1c2ccccc2CCc2ccccc21 [IMIPRAMINE] | Active | Non-toxic |  |  |  |  |  |
| Cn1c(=O)c2c(ncn2CCCCN2CCN(c3ccc(Cl)c(Cl)c3)CC2)n(C)c1=O |  |  | 179 | 460 | 105 | 1900 | 73 |
| COc1ccccc1N1CCN(CCCCn2cnc3c2c(=O)n(C)c(=O)n3C)CC1 |  |  | 434 | 1050 | 1.2 | 1970 | 65 |
| Cn1c(=O)c2c(ncn2CCCN2CCc3ccccc3C2)n(C)c1=O |  |  | 3620 | 10500 | 433 | 12300 | 2710 |
